Source: patent US11292781B2, “Pyrimidine tricyclic enone derivatives for inhibition of ROR-gamma and other uses” (REATA PHARMACEUTICALS, INC., priority 2016, dated 2022)

Experiments:
[1] = test system: Nrf2 transcription factor (GST ARE luciferase reporter in AREc32 cells); assay: AREc32 luciferase reporter assay; format: cell-based, human; settings: EC2×: concentration required to increase GST ARE luciferase reporter activity by 2-fold, 19 hours
Source text: A. AREc32 Luciferase Reporter Assay The AREc32 luciferase reporter assay allows for quantitative assessment of the endogenous activity of the Nrf2 transcription factor in cultured mammalian cells. AREc32 cells are derived from MCF-7 human breast carcinoma cells that were stably transfected with a reporter construct that contains the firefly luciferase gene located downstream of eight copies of the rat GSTA2 antioxidant response element (ARE) sequence (Wang et al., 2006; CXR Biosciences). Active NRF2 binds to the ARE sequences and increases expression of the firefly luciferase gene. […] Luciferase activity was determined using the ONE-Glo Luciferase assay (Promega). The luminescence signal was measured on a BMG Pherastar microplate reader. The mean luminescence value from test compound-treated wells was normalized to that from DMSO-treated wells and was represented as fold-induction. Data were analyzed using GraphPad Prism version 6.00 for Windows, GraphPad Software, La Jolla Calif. USA. A non-linear regression curve with log (agonist) vs. response using a variable slope was used to fit the data. […] EC2× values were interpolated from the curve.

[2] = test system: IL-17A levels in primary human CD4+ T cells differentiated into Th17 cells; assay: IL-17 release from differentiated primary human T-cells (IL-17A HTRF); format: cell-based; settings: primary human CD4+ T cells, Th17 differentiation, 46-hour incubation; read-out: hIL17 IC50
Procedure: C. IL-17 Release from Differentiated Primary Human T-Cells and Cell Viability Primary human cryopreserved CD4+ T Cells (Lonza, donor #0000402103) were plated in Lymphocyte Growth Medium-3 (LGM-3, Lonza) according to the manufacturer's recommendations, and allowed to recover for approximately 3 hours at 37° C. with 5% CO2 in a humidified atmosphere. […] Triplicate wells were plated for each test condition. DMSO (final concentration ≤0.1%) was used as the vehicle. Immediately after plating, CD4+ T cells were activated by adding Dynabeads Human T-Activator CD3/CD28 (Life Technologies; bead-to-cell ratio of 1:2.5) and differentiated into Th17 cells by adding a mixture of the following cytokines: transforming growth factor-β (TGF-β, 5 ng/mL), IL-6 (20 ng/mL), IL-23 (20 ng/mL), and […] (10 ng/mL). Undifferentiated control cells received only cytokine IL-2 (50 ng/mL). All human recombinant cytokines were purchased from R&D Systems. Following a 46-hour incubation at 37° C. with 5% CO2 in a humidified atmosphere, the plates were centrifuged for 3 minutes at 250×g, and half of the supernatant was transferred to a new plate to be used in the IL-17A assay (see below). Cell viability was assessed in the original plate using the CyQuant Direct Assay (Life Technologies). CyQuant values from test compound samples were normalized to those from DMSO-treated samples. The concentration of IL-17A in the supernatant was measured using the Homogeneous Time-Resolved Fluorescence (HTRF) assay (Cisbio Bioassays) according to the manufacturer's protocol. The assay was performed at room temperature in low volume, solid white 384-well plates (Greiner Bio-One). […] A non-linear regression analysis with log (inhibitor) vs. normalized response using a variable slope was applied to fit the data and determine the IC50 values for inhibition of IL-17A levels and cell viability.

Row | SMILES | IC50 [2] | HRF2 ARE 2× [1]
1 | COc1nc(Nc2ccncc2)nc2c1CC[C@@H]1[C@@H](C)C(=O)C(C#N)=C[C@@]21C [T8] | 185 nM | 534 nM
2 | COc1nc(-c2ccnc3ccccc23)nc2c1CC[C@@H]1[C@@H](C)C(=O)C(C#N)=C[C@@]21C [T9] | 67 nM | 510 nM
3 | C[C@H]1C(=O)C(C#N)=C[C@@]2(C)c3nc(C4CCCCC4)nc(-c4ccccc4)c3CC[C@H]12 [T23] | 40 nM | 144 nM
4 | C[C@H]1C(=O)C(C#N)=C[C@@]2(C)c3nc(-c4ccnc5ccccc45)nc(-c4ccccc4)c3CC[C@H]12 [T32] | 68 nM | 272 nM
5 | COc1cc(-c2nc(-c3ccccc3)c3c(n2)[C@]2(C)C=C(C#N)C(=O)[C@H](C)[C@H]2CC3)ccn1 [T33] | 40 nM | 480 nM
6 | CC1=C2CCc3c(-c4ccccc4F)nc(-c4ccnc5ccccc45)nc3[C@]2(C)C=C(C#N)C1=O [T38] | 374 nM | >2000 nM
7 | C[C@H]1C(=O)C(C#N)=C[C@@]2(C)c3nc(-c4ccnc5ccccc45)nc(-c4cccc(F)c4)c3CC[C@H]12 [T39] | 63 nM | 427 nM
8 | C[C@H]1C(=O)C(C#N)=C[C@@]2(C)c3nc(-c4ccnc5ccccc45)nc(-c4ccc(F)cc4)c3CC[C@H]12 [T40] | 63 nM | 273 nM
9 | CC(C)Oc1nc(-c2ccnc3ccccc23)nc2c1CC[C@@H]1[C@@H](C)C(=O)C(C#N)=C[C@@]21C [T41] | 64 nM | 528 nM
10 | CC(C)c1nc(-c2ccnc3ccccc23)nc2c1CC[C@@H]1[C@@H](C)C(=O)C(C#N)=C[C@@]21C [T42] | 165 nM | 513 nM
11 | Cc1cc(-c2nc(-c3ccccc3)c3c(n2)[C@]2(C)C=C(C#N)C(=O)[C@H](C)[C@H]2CC3)ccn1 [T43] | 39 nM | 278 nM
12 | C[C@H]1C(=O)C(C#N)=C[C@@]2(C)c3nc(C4CCN(C(=O)OC(C)(C)C)CC4)nc(-c4ccccc4)c3CC[C@H]12 [T44] | 60 nM | 596 nM
13 | CC(=O)N1CCC(c2nc(-c3ccccc3)c3c(n2)[C@]2(C)C=C(C#N)C(=O)[C@H](C)[C@H]2CC3)CC1 [T46] | 177 nM | 735 nM
14 | C[C@H]1C(=O)C(C#N)=C[C@@]2(C)c3nc(C4=CCCN(C(=O)OC(C)(C)C)C4)nc(-c4ccccc4)c3CC[C@H]12 [T47] | 38 nM | 622 nM
15 | C[C@H]1C(=O)C(C#N)=C[C@@]2(C)c3nc(C4=CCCNC4)nc(-c4ccccc4)c3CC[C@H]12.Cl [T48] | 225 nM | 460 nM
16 | CC(=O)N1CCC=C(c2nc(-c3ccccc3)c3c(n2)[C@]2(C)C=C(C#N)C(=O)[C@H](C)[C@H]2CC3)C1 [T49] | 181 nM | 491 nM
17 | C[C@H]1C(=O)C(C#N)=C[C@@]2(C)c3nc(-c4ccnc5ccccc45)nc(-c4ccc(F)cc4F)c3CC[C@H]12 [T52] | 35 nM | 272 nM

Now from value to compound, other results behind:

Row | IC50 [2] | SMILES | HRF2 ARE 2× [1]
18 | 33 nM | C[C@H]1C(=O)C(C#N)=C[C@@]2(C)c3nc(-c4ccnc(C5CC5)c4)nc(-c4ccccc4F)c3CC[C@H]12 [T53] | 380 nM
19 | 31 nM | C[C@H]1C(=O)C(C#N)=C[C@@]2(C)c3nc(-c4ccnc(C(F)(F)F)c4)nc(-c4ccccc4F)c3CC[C@H]12 [T54] | 483 nM
20 | 590 nM | Cc1cnccc1-c1nc(-c2ccccc2F)c2c(n1)[C@]1(C)CC(C#N)=C(O)[C@H](C)[C@H]1CC2 [T55] | >2000 nM
21 | 77 nM | C[C@H]1C(=O)C(C#N)=C[C@@]2(C)c3nc(-c4ccncc4F)nc(-c4ccccc4F)c3CC[C@H]12 [T57] | 419 nM
22 | 69 nM | Cc1cncc(-c2nc(-c3ccccc3F)c3c(n2)[C@]2(C)C=C(C#N)C(=O)[C@H](C)[C@H]2CC3)c1 [T58] | 155 nM
23 | 34 nM | C[C@H]1C(=O)C(C#N)=C[C@@]2(C)c3nc(-c4cnc5ccccc5c4)nc(-c4ccccc4F)c3CC[C@H]12 [T59] | 311 nM
24 | 60 nM | CC(=O)Nc1cc(-c2nc(-c3ccccc3F)c3c(n2)[C@]2(C)C=C(C#N)C(=O)[C@H](C)[C@H]2CC3)ccn1 [T61] | 461 nM
25 | 39 nM | C[C@H]1C(=O)C(C#N)=C[C@@]2(C)c3nc(-c4cccc5cccnc45)nc(-c4ccccc4F)c3CC[C@H]12 [T62] | 401 nM
26 | 21 nM | Cc1cc(-c2nc(-c3ccccc3F)c3c(n2)[C@]2(C)C=C(C#N)C(=O)[C@H](C)[C@H]2CC3)c2cccc(F)c2n1 [T63] | 259 nM
27 | 35 nM | C[C@H]1C(=O)C(C#N)=C[C@@]2(C)c3nc(-c4ccnc(N5CCOCC5)c4)nc(-c4ccccc4F)c3CC[C@H]12 [T64] | 425 nM
28 | 29 nM | C[C@H]1C(=O)C(C#N)=C[C@@]2(C)c3nc(-c4ccnc(-c5ccccc5)c4)nc(-c4ccccc4F)c3CC[C@H]12 [T65] | 463 nM
29 | 39 nM | C[C@H]1C(=O)C(C#N)=C[C@@]2(C)c3nc(-c4cncc5ccccc45)nc(-c4ccccc4F)c3CC[C@H]12 [T66] | 190 nM
30 | 63 nM | C[C@H]1C(=O)C(C#N)=C[C@@]2(C)c3nc(-c4cnn5ccccc45)nc(-c4ccccc4F)c3CC[C@H]12 [T67] | 208 nM
31 | 31 nM | Cc1cccc2c(-c3nc(-c4ccccc4F)c4c(n3)[C@]3(C)C=C(C#N)C(=O)[C@H](C)[C@H]3CC4)ccnc12 [T68] | 253 nM
32 | 20 nM | Cc1cc(-c2nc(-c3ccccc3F)c3c(n2)[C@]2(C)C=C(C#N)C(=O)[C@H](C)[C@H]2CC3)c2ccccc2n1 [T69] | 227 nM
33 | 61 nM | Cc1nc(C)c(-c2nc(-c3ccccc3F)c3c(n2)[C@]2(C)C=C(C#N)C(=O)[C@H](C)[C@H]2CC3)s1 [T70] | 391 nM
34 | 198 nM | Cc1nc(-c2nc(-c3ccccc3F)c3c(n2)[C@]2(C)C=C(C#N)C(=O)[C@H](C)[C@H]2CC3)no1 [T71] | 780 nM
35 | 69 nM | Cc1ccc2nccc(-c3nc(-c4ccccc4F)c4c(n3)[C@]3(C)C=C(C#N)C(=O)[C@H](C)[C@H]3CC4)c2c1 [T73] | 407 nM
36 | 49 nM | C[C@H]1C(=O)C(C#N)=C[C@@]2(C)c3nc(-c4ncnc5ccccc45)nc(-c4ccccc4F)c3CC[C@H]12 [T74] | 507 nM
37 | 42 nM | C[C@H]1C(=O)C(C#N)=C[C@@]2(C)c3nc(-c4nccc5ccccc45)nc(-c4ccccc4F)c3CC[C@H]12 [T75] | 552 nM
38 | 35 nM | C[C@H]1C(=O)C(C#N)=C[C@@]2(C)c3nc(-c4ccnc5cc(F)ccc45)nc(-c4ccccc4F)c3CC[C@H]12 [T76] | 315 nM
39 | 31 nM | C[C@H]1C(=O)C(C#N)=C[C@@]2(C)c3nc(-c4ccnc5c(F)cccc45)nc(-c4ccccc4F)c3CC[C@H]12 [T77] | 264 nM
